{"source": "patent US4760072A", "about": "“Solid nedocromil sodium, useful for the removal of obstructed air pathways” (Fisons, plc, priority 1984, dated 1988)", "key": {"[1]": {"assay": "Air classification of ground nedocromil sodium", "type": "physicochemical", "excerpt": "It is further known to be desirable to make inhalation pharmaceuticals in the form of fine particles. These fine particles are conventionally made by grinding or milling larger sized particles of the pharmaceutical. Generally grinding and milling machines are extremely efficient and reduce the particle size of the material as far as they are capable in a single pass. Indeed the mass median diameter of product material can increase after a second pass through the grinder because some of the finest particles are lost to the system. We have also attempted to produce a material of very fine particle size by air classification of ground nedocromil sodium."}, "[2]": {"assay": "Aerosol dispersion with single stage liquid impinger", "type": "physicochemical", "excerpt": "The single stage liquid impinger samples the whole cloud delivered from the aerosol and separates it into two fractions by inertial impaction. The fraction of smaller particle size is less than 10 microns in aerodynamic diameter and represents material which is likely to penetrate into the deeper regions of the human airways.\nIn four laboratory precipitations using this method particles of mass mean diameter 2.5, 2.5, 2.8 and 2.8 microns were produced, and these gave aerosol dispersions of 26% and 23% from a 50 microliter valve using the formulation described in Example 1. The dispersion was measured with a single stage liquid impinger."}, "[3]": {"assay": "Bound water / thermogravimetric analysis", "type": "physicochemical", "experimental": "Form A material containing bound water can best be identified by thermogravimetric analysis in which the temperature of the material to be tested is increased at a constant rate and the change in weight of the sample is recorded against time.\n(a) Two samples of about 5 mg of nedocromil sodium were submitted to thermogravimetric analysis at a scan rate of 20° C. per minute."}, "[4]": {"assay": "Powder X-ray diffraction, crystallinity", "type": "physicochemical", "excerpt": "These peaks indicate that the material is crystalline.\nIn addition to the form A material there is a less desired form B which is of darker yellow colour, i.e. gives a yellow reading of 2.0 or more at 10% w/w total water using a Lovibond tintometer."}, "[5]": {"details": "20° C.; cited from earlier work"}, "[6]": {"assay": "Viscosity of precipitated crystal slurry", "type": "physicochemical", "details": "140 ml isopropanol at 15° C. added; cooled to 22° C. in 30 minutes", "experimental": "Twenty grams of crude nedocromil sodium were mixed with 60 ml of deionised water and 180 ml of isopropyl alcohol in a 700 ml reaction flask. The mixture was agitated with an anchor-type agitator at 120 rpm and heated to boiling point at about 80° C. The solution was refluxed for 10 minutes and then cooled to 75° C. To it was then added a further 140 ml isopropanol at 15° C. […] The resulting slurry was then agitated as in Example 4 and cooled in an ice/salt/isopropanol bath to 22° C. in 30 minutes. […] This slurry was filtered, washed and dried as in Example 4."}, "[7]": {"assay": "Solid form produced by precipitation process", "type": "physicochemical", "experimental": "Twenty grams of the nedocromil sodium were dissolved in 60 ml of deionised water and 180 ml of isopropyl alcohol by heating to reflux at 81° C. To this solution was then added a further 190 ml of isopropanol (temperature 25° C.) with agitation. The crystal slurry was then cooled in air, maintaining agitation, until a temperature of 25° C. had been reached. The crystals were then filtered on a Buchner filter, using a terylene filter cloth. The filter cake was washed with a displacement volume of isopropanol and filtered further. The cake was then dried in an oven, at atmospheric pressure and 60° C., to constant weight.\n1 Kg of nedocromil sodium is dissolved in three liters of deionised water and six liters of isopropanol at 30° C., and the mixture is then heated to reflux (at 81° C.) with agitation to ensure dissolution. The resulting solution is cooled slightly to about 75° C. and then added to another 12.5 liters of isopropanol at a temperature of about -8° C., as quickly as possible. This precipitates out most of the nedocromil sodium and produces a slurry. This slurry is then stirred and cooled to 25° C. over about an hour, to precipitate out further material. The temperature of the slurry is kept at 25° C. and the slurry filtered as soon as possible to remove the mother liquor, and then dried to constant weight at 60° C. […]"}, "[8]": {"assay": "Particle size analysis by Joyce-Loebl disc centrifuge", "type": "physicochemical", "details": "four laboratory precipitations; Apex milled and micronised in a fluid energy mill", "experimental": "By mass median diameter we mean the diameter such that half the particulate mass is in particles of lesser diameter and half in particles of greater diameter. The mass median diameter is essentially a Stokes diameter and may be determined using a Joyce Loebl sedimentation disc centrifuge either in a two layer or line start photometric mode (Bagness J and Ottaway A. Proc. Soc. Analyt. Chem. Part 4, Vol 9, 1972 pages 83-86).\nTwenty grams of nedocromil sodium were mixed with 60 ml of de-ionised water and 180 ml isopropanol in a 700 ml reaction flask. The mixture was agitated with an anchor-type stirrer at 120 rpm, and heated to its boiling point at around 80° C. The flask was fitted with a water-cooled condenser to prevent escape of isopropanol vapour. The resulting solution was refluxed for about 10 minutes to ensure complete dissolution. The hot solution of nedocromil sodium was then cooled to 75° C. and then added in about 20 seconds to 190 ml of isopropanol at 8° C. The resulting slurry was stirred with the anchor agitator and cooled to 25° C. in the reaction flask. The time taken for cooling was about 45 minutes and throughout this time the crystal slurry remained as the pale yellow, free flowing form. The slurry was then filtered on a Buchner filter using terylene filter cloth, washed with about 50 ml isopropanol and dried in an oven at 60° C. to constant weight. […]"}, "[9]": {"assay": "Physical stability of solid form B", "type": "physicochemical"}}, "note": "“And” between values parts separate entries of the source, which are not always exact repeats. Equal values may be shown once. Where a name gives a salt, the structure may show the parent alone.", "data": [{"smiles": "CCCc1c2oc(C(=O)O)cc(=O)c2cc2c(=O)cc(C(=O)O)n(CC)c12", "note": "[nedocromil sodium, disodium salt of 9-ethyl-6,9-dihydro-4,6-dioxo-10-propyl-4H-pyrano[3,2-g]-quinoline-2,8-dicarboxylic acid]", "values": [{"measurement": "mean particle size after air classification", "setting": "[1]", "result": "larger mean particle size than the starting material"}, {"measurement": "dispersion of aerosol units, relative to larger mass median diameter", "setting": "[2]; mass median diameter less than 4 microns vs exactly analogous units of larger mass median diameter", "result": "greater dispersion than exactly analogous units containing nedocromil sodium of larger mass median diameter"}]}, {"smiles": "CCCc1c2oc(C(=O)O)cc(=O)c2cc2c(=O)cc(C(=O)O)n(CC)c12", "note": "[Form A]", "values": [{"measurement": "thermogravimetric trace (in words)", "setting": "[3]", "result": "discontinuous"}, {"measurement": "removability of bound water on intensive drying", "setting": "[3]; atmospheric pressure", "result": "cannot readily be removed by intensive drying at atmospheric pressure without destroying the compound"}, {"measurement": "crystallinity by powder X-ray diffraction", "setting": "[4]", "result": "crystalline"}]}, {"smiles": "FC(F)(Cl)Cl", "note": "[Propellant 12, dichlorodifluoromethane]", "values": [{"measurement": "vapour pressure (absolute)", "setting": "[5]", "result": "about 570 k Pa"}]}, {"smiles": "CCCc1c2oc(C(=O)O)cc(=O)c2cc2c(=O)cc(C(=O)O)n(CC)c12", "note": "[Example 6]", "values": [{"measurement": "bound water (in words)", "setting": "[3]", "result": "no tightly bound water"}, {"measurement": "viscosity of slurry", "setting": "[6]", "result": "about 20,000 centipoise"}, {"measurement": "form of nedocromil sodium produced", "setting": "[7]", "result": "form B"}]}, {"smiles": "FC(F)(Cl)C(F)(F)Cl", "note": "[Propellant 114, 1,2-dichlorotetrafluoroethane]", "values": [{"measurement": "vapour pressure (absolute)", "setting": "[5]", "result": "about 180 k Pa"}]}, {"smiles": "CCCc1c2oc(C(=O)O)cc(=O)c2cc2c(=O)cc(C(=O)O)n(CC)c12", "note": "[Example 4]", "values": [{"measurement": "mass mean diameter", "setting": "[8]", "result": "2.5 microns and 2.8 microns"}, {"measurement": "aerosol dispersion", "setting": "[2]; 50 microliter valve, formulation described in Example 1", "result": "26% and 23%"}]}, {"smiles": "CCCc1c2oc(C(=O)O)cc(=O)c2cc2c(=O)cc(C(=O)O)n(CC)c12", "note": "[Form B]", "values": [{"measurement": "bound water (in words)", "setting": "[3]", "result": "no bound water"}, {"measurement": "thermogravimetric trace (in words)", "setting": "[3]", "result": "essentially continuous trace"}, {"measurement": "crystallinity by powder X-ray diffraction", "setting": "[4]", "result": "amorphous"}, {"measurement": "coalescence on change to form A", "setting": "[9]", "result": "can coalesce to produce hard and intractable lumps of particle size larger than the original material"}, {"measurement": "spontaneous change to form A", "setting": "[9]", "result": "can, but does not necessarily,change spontaneously (sometimes after a very considerable time) to form A"}]}]}
